Reference: patent US4619941A, “N-[(1H-imidazol-1-yl)alkyl]-1H-indolecarboxamides useful as thromboxane synthetase inhibitors and antihypertensive agents” (American Cyanamid Company, priority 1984, dated 1986)

How the values were obtained:
thromboxane synthetase = target: T1, thromboxane synthetase (Rattus norvegicus, UniProt P49430); assay: Inhibition of thromboxane (TXA2) formation, determined as TXB2 formed by washed SHR platelets (direct RIA); assay type: cell-based, Okamoto-Aoki spontaneously hypertensive rats (SHR); settings: Dose 10^-4 M, 10 minutes at 37° C., pH 7.4
T1 construct: The platelets were isolated by centrifuging the PRP for 10 minutes at 1060 xg; endogenous in cells; host or cells: washed platelets from arterial blood of Okamoto-Aoki spontaneously hypertensive rats (Taconic Farms), 19 to 24 weeks old
T1 sequence (P49430 1-533): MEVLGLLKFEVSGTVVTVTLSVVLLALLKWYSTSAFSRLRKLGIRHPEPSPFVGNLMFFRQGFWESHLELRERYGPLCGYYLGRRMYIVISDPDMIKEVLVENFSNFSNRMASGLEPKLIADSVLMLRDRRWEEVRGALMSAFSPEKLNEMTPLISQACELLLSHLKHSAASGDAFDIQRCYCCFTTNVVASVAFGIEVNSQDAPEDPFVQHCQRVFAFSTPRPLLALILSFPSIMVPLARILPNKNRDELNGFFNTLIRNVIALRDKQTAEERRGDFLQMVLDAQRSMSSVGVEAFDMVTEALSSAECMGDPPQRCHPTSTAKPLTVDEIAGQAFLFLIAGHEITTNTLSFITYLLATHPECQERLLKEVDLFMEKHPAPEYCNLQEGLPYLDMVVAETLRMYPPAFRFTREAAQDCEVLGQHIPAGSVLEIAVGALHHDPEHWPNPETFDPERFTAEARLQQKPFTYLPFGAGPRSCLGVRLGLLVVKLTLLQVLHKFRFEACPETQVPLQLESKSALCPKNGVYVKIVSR
Protocol: The inhibition of thromboxane (TXA2) formation was studied by determining the concentration of thromboxane B2 (TXB2), the stable hydrolysis product of TXA2.
The blood was diluted with 3 ml cold saline and centrifuged at room temperature for 15 minutes at 460 xg. The platelet rich plasma (PRP) was separated. The platelets were isolated by centrifuging the PRP for 10 minutes at 1060 xg and were washed in 4 ml cold oxygenated Krebs phosphate buffer, pH 7.4. the chilled platelets recovered from centrifuging at 800 xg for 10 minutes were resuspended in oxygenated Krebs phosphate buffer and diluted to contain 4.5-6.0×10^4 platelets/μl. […] The samples were incubated for 10 minutes at 37° C. in a metabolic shaker. The reaction was terminated by immersing the tubes in an ice bath and adding 50 μl of 0.5 M citric acid. The samples were centrifuged for 10 minutes in a refrigerated centrifuge and the supernatants thus obtained were decanted and stored at -20° C. The TXB2 content for each sample was determined by a direct radioimmunoassay (RIA) utilizing a TXB2 specific RIA kit purchased from New England Nuclear, Boston, MA and expressed as pg TXB2 formed minute^-1 sample^-1, from which the percent inhibition of TXB2 formation was calculated.

[1] = test system: spontaneously hypertensive rats of the Okamoto strain; assay: Hypotensive activity in spontaneously hypertensive rats, mean arterial blood pressure (method of Chan and Poorvin); assay type: in vivo; settings: by gavage, 100 mg/kg or less, second identical dose at 24 hours; measured 28 hours after initial dose; SHR average MABP 160±1.5 mm Hg
Protocol: Male, 16 week old, spontaneously hypertensive rats of the Okamoto strain, from Taconic Farms, Germantown, N.Y., having an average means arterial blood pressure of 160±1.5 mm of mercury are used in the test. One to three rats are used per test compound. A rat is dosed by gavage with a test compound, suspended in 2% pre-boiled starch at a concentration of 50 mg/ml, at a dose of 100 mg/kg of body weight or less with 0.9% sodium chloride loading at a dose of 25 ml/kg of body weight. A second identical dose of the test compound, without sodium chloride loading is given 24 hours later. At 28 hours after the initial dose the mean arterial blood pressure is measured by the method of Chan and Poorvin vide supra. The procedure is repeated in a second and third rat when necessary.

| Structure (SMILES) | inhibition at 100 µM (thromboxane synthetase) [%] | MABP (mean arterial blood pressure) [1] [mm Hg] |
| --- | --- | --- |
| Cc1nccn1CCCNC(=O)c1cc2ccccc2n1C [1-Methyl-N-[3-(2-methyl-1H-imidazol-1-yl)-propyl]-1H-indole-2-carboxamide] | 56 | – |
| Cc1cn(CCCNC(=O)c2cc3ccccc3n2C)cn1 [1-Methyl-N-[3-(4-methyl-1H-imidazol-1-yl)propyl]-1H-indole-2-carboxamide] | 85 | 136 |
| CC(CNC(=O)c1cc2cc(Cl)ccc2[nH]1)Cn1ccnc1 (stereo not drawn) [5-Chloro-N-[3-(1H-imidazol-1-yl)-2-methylpropyl]-1Hindole-2carboxamide] | 100 | 123 |
| CC(CCNC(=O)c1cc2cc(Cl)ccc2[nH]1)n1ccnc1 (stereo not drawn) [5-Chloro-N-[3-(1H-imidazol-1-yl)-butyl]-1H-indole-2-carboxamide] | 98 | 119 |
| O=C(NCCCn1ccnc1)c1cc2cc(Cl)ccc2[nH]1 [5-Chloro-N-[3-(1H-imidazol-1-yl)propyl]-1H-indole-2-carboxamide] | 95 | – |
| Cc1cn(CCCNC(=O)c2cc3cc(Cl)ccc3[nH]2)cn1 [5-Chloro-N-[3-(4-methyl-1H-imidazol-1-yl)propyl]-1H-indole-2-carboxamide] | 100 | 135 |
| O=C(NCCCCn1ccnc1)c1cc2cc(Cl)ccc2[nH]1 [5-Chloro-N-[4-(1H-imidazol-1-yl)butyl]-1H-indole-2-carboxamide] | – | 118 |
| O=C(NCCCCCn1ccnc1)c1cc2cc(Cl)ccc2[nH]1 [5-Chloro-N-[5-(1H-imidazol-1-yl)pentyl]-1H-indole-2-carboxamide] | – | 124 |
| O=C(NCCCCCCCCn1ccnc1)c1cc2cc(Cl)ccc2[nH]1 [5-Chloro-N-[8-(1H-imidazol-1-yl)octyl]-1H-indole-2-carboxamide] | 66 | – |
| COc1ccc2[nH]c(C(=O)NCCCn3ccnc3C)cc2c1 [5-Methoxy-N-[3-(2-methyl-1H-imidazol-1-yl)propyl]-1H-indole-2-carboxamide] | 49 | – |
| COc1ccc2[nH]c(C(=O)NCCCCn3ccnc3)cc2c1 [5-Methoxy-N-[4-(1H-imidazol-1-yl)butyl]-1H-indole-2-carboxamide] | 100 | 130 |
| Cn1c(C(=O)NCCCn2ccnc2)cc2ccccc21 [N-[3-(1H-Imidazol-1-yl)propyl]-1-methyl-1H-indole-2-carboxamide] | 88 | – |
| O=C(NCCCn1ccnc1)c1cc2ccccc2[nH]1 [N-[3-(1H-Imidazol-1-yl)propyl]-1H-indole-2-carboxamide] | 94 | 114 |
| O=C(NCCCn1ccnc1)c1ccc2[nH]ccc2c1 [N-[3-(1H-Imidazol-1-yl)propyl]-1H-indole-5-carboxamide] | – | 133 |
| COc1ccc2[nH]c(C(=O)NCCCn3ccnc3)cc2c1 [N-[3-(1H-Imidazol-1-yl)propyl]-5-methoxy-1H-indole-2-carboxamide] | 96 | – |
| Cc1nccn1CCCNC(=O)c1cc2ccccc2[nH]1 [N-[3-(2-Methyl-1H-imidazol-1-yl)propyl]-1H-indole2-carboxamide] | 44 | – |
| O=C(NCCCn1ccnc1-c1ccccc1)c1cc2ccccc2[nH]1 [N-[3-(2-Phenyl-1H-imidazol-1-yl)propyl]-1H-indole-2-carboxamide] | 91 | – |
| Cc1cn(CCCNC(=O)c2cc3ccccc3[nH]2)cn1 [N-[3-(4-Methyl-1H-imidazol-1-yl)propyl]-1H-indole-2-carboxamide] | 100 | 131 |
| O=C(NCCCCn1ccnc1)c1cc2ccccc2[nH]1 [N-[4-(1H-Imidazol-1-yl)butyl]-1H-indole-2-carboxamide] | 100 | 137 |
